US20230279495A1, “MOLECULAR SIGNATURES OF RADIATION SENSITIVITY IN TUMORS, AND METHODS OF USE THEREOF” (MEMORIAL SLOAN KETTERING CANCER CENTER, priority 2019, published 2023)

Columns and labels:
[1] = system: DSB repair pathways (NHEJ, MMEJ, HR) at the AAVS1 locus in U2OS cells; assay: Cas9 assay (DSBR-Seq): NHEJ, MMEJ and HR quantified by sequencing repair events at a site-directed DSB; assay type: cell-based
Procedure: FIG. 4. A-G. E7 expression shifts DNA double strand break repair pathway choice towards MMEJ. (FIG. 4 A) Schematic of DSBR-Seq Assay. The sequencing reads are classified into NHEJ (<5 bp deletion) in (FIG. 4 B), MMEJ (>5 bp deletion with at least 2 bp MH) in (FIG. 4 C) and HR (substitutions from HR donor) in (FIG. 4 D). The DNApk inhibitor […] was used at 1 μM (micromolar) concentration. (FIG. 4 E) cNHEJ measured as a fraction of mutant reads with deletion sizes less than 5 bp. (FIG. 4 F) E7 expression favors mutant reads with deletion sizes larger than 5 bp representing DSBs repaired by MMEJ. (FIG. 4 G) E7 expression results in lower deletion frequency of small deletions near the double strand break. Results represent the mean of 3 independent experiments+/−the standard error of the mean. * represents a p-vale of <0.05.
To measure DSB repair pathway tradeoffs within an endogenous genomic locus, we used the Cas9 endonuclease to create a site-directed DSB at the AAVS1 locus, chosen because of its characterization as a “safe” genomic locus for integration. Cas9 creates a blunt-ended DSB and repair events at the breaksite can be cataloged in a pool of cells using PCR amplification of a region surrounding the breaksite and massively parallel sequencing to quantify repair outcomes. […] NHEJ is measured with sequencing events with small (1-5) base pair deletions whereas MMEJ is quantified using sequencing events with large deletions and microhomology at the breaksite. All three pathways are thereby quantifiable in a single set of sequencing data in a single pool of cells (FIG. 4 A). […]
To quantify NHEJ, MMEJ and HR at an endogenous breaksite, a Cas9 and gRNA expression plasmid and a donor template oligonucleotide was transfected into U2OS cells with and without E7 expressed. A PCR product surrounding the breaksite was sequenced using Illumina-based NGS technology and the pattern of deletions at the breaksite was analyzed and quantified according to methods described within the Example 2 (SI appendix). […]

[2] = target: Rb (retinoblastoma protein, RB1) (human) (UniProt P06400); assay: cell-based or functional assay
UniProt P06400, sequence (P06400 2-928 limits assumed): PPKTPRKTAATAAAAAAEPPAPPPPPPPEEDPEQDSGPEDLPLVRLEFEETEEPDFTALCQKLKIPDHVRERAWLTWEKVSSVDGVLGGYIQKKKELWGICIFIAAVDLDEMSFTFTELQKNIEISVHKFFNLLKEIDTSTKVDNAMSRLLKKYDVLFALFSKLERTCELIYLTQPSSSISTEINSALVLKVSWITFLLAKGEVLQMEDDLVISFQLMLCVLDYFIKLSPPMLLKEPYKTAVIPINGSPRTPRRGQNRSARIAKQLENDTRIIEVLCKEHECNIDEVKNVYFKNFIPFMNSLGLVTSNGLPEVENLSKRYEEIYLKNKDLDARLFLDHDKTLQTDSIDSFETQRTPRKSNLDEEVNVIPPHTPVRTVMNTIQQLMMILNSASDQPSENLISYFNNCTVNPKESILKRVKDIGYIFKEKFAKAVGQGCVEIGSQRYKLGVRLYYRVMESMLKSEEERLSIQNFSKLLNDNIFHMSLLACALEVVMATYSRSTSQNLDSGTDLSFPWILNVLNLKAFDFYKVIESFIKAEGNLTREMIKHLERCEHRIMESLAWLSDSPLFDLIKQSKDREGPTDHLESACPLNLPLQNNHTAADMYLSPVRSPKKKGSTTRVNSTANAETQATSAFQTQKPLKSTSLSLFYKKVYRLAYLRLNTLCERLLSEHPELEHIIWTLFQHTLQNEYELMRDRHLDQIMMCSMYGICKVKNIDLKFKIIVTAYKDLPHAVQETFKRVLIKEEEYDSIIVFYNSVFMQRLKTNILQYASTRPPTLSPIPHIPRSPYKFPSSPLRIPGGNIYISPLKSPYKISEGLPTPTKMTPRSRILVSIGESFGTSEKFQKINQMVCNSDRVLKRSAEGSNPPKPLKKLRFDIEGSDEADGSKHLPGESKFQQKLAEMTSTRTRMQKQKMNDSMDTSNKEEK

| Compound | small deletions (1-5 base pairs), reflective of NHEJ ([1]; inhibitor at 1 μM (FIG. 4 B)) | larger deletions (>5 bp) with microhomology (≥2 bp) (MMEJ) ([1]; inhibitor at 1 μM (FIG. 4 C)) | HR (substitutions from HR donor) ([1]; inhibitor at 1 μM (FIG. 4 D)) | MMEJ activity (percentage of GFP positive cells, U2OS EJ2-GFP reporter, against empty vector) [2] [%] | decrease in NHEJ activity (percentage of GFP positive cells, U2OS EJ5-GFP reporter, against empty vector) [2] [%] |
| --- | --- | --- | --- | --- | --- |
| O=c1cc(N2CCOCC2)oc2c(-c3cccc4c3sc3ccccc34)cccc12 [Nu7441] | decrease | increase | increase | – | – |
| HPV16 E7 oncoprotein (from UniProt P03129 1-98) | – | – | – | 42 | 31 |
